Measured values as given in patent publication US4738929A, “Purified culture of streptomyces galanosa” (Warner-Lambert Company, priority 1986, dated 1988).
In brackets after ≈: the same amount, converted by molar mass.

Columns and labels:
Bacillus cereus = assay: Microtiter dilution MIC, Bacillus cereus; type: cell-based; conditions: Mueller-Hinton broth, 37° C., 16-24 hours, read-out: Minimal Inhibitory Concentration
Protocol: (§1) The compounds of the present invention and their pharmaceutically acceptable salts are useful as antimicrobial agents. The antimicrobial activity of the representative examples of compounds in accordance with the present invention against five species of gram-negative bacteria, seven species of gram-positive bacteria, four species of yeast, and two species of fungi were determined using the microtiter dilution technique. This method is described by T. B. Conrath, "Handbook of Microtiter Procedures," Dynatech Corp., Cambridge, Mass., USA (1972); and T. L. Gavan et al, "Microdilution Test Procedures," in Manual of Clinical Microbiology, E. H. Lennette, Ed., American Soc. for Microbiol., Washington, D.C., U.S.A. (1980).
(§2) Each agent is suspended in a nonaqueous solvent for several minutes to sterilize the compound or, if the compound is completely soluble in water, the aqueous solution is sterilized by passage through a 0.2-0.45 micrometer membrane filter.
(§3) Each well of a sterile 96-well microdilution tray is filled under aseptic conditions with 0.1 ml of Mueller-Hinton broth (for antibacterial tests), or yeast extract-peptone-dextrose or buffered supplemented yeast nitrogen base (for tests with yeasts or fungi).
(§4) […] of the test compound solution is added to each of the eight wells in the first row of the tray. A microdilutor apparatus is used to simultaneously mix the contents of these wells and to transfer aliquots to each succeeding row of cells to obtain a range of serially diluted solutions. The last row of wells is untreated and serves as a control.
(§5) Each well containing broth and test compound is inoculated with about ten microliters of inoculum of the test microorganism. One well in the last row of wells (which is free of test compound) is not inoculated and is used as a sterility control The trays are sealed and incubated at 37° C. for 16-24 hours (for bacteria) or at 28° C. for 36-48 hours (yeasts or fungi). During incubation, the inoculated medium is shaken at 100-140 rpm to increase contact between the microorganism cells and test compounds.
(§6) After the incubation period, each plate is evaluated by determining the lowest concentration of test compound required to inhibit the growth of the microorganism and recorded as a minimal inhibitory concentration (MIC).

Rhodotorula aurantiaca = assay: Microtiter dilution MIC, Rhodotorula aurantiaca; type: cell-based; conditions: Buckleyzyma aurantiaca; yeasts or fungi, 28° C., 36-48 hours; read-out: Minimal Inhibitory Concentration
Protocol: as §1, §2, §3, §4, §5, §6

Salmonella typhimurium = assay: Microtiter dilution MIC, Salmonella typhimurium; type: cell-based; conditions: Salmonella enterica, Mueller-Hinton broth, 37° C., 16-24 hours, read-out: Minimal Inhibitory Concentration
Protocol: as §1, §2, §3, §4, §5, §6

Branhamella catarrhalis = assay: Microtiter dilution MIC, Branhamella catarrhalis; type: cell-based; conditions: Moraxella catarrhalis; Mueller-Hinton broth, 37° C., 16-24 hours; read-out: Minimal Inhibitory Concentration
Protocol: as §1, §2, §3, §4, §5, §6

Saccharomyces cerevisiae = assay: Microtiter dilution MIC, Saccharomyces cerevisiae; type: cell-based; conditions: yeasts or fungi, 28° C., 36-48 hours, read-out: Minimal Inhibitory Concentration
Protocol: as §1, §2, §3, §4, §5, §6

Rhizopus japonicus = assay: Microtiter dilution MIC, Rhizopus japonicus; type: cell-based; conditions: yeasts or fungi, 28° C., 36-48 hours, read-out: Minimal Inhibitory Concentration
Protocol: as §1, §2, §3, §4, §5, §6

Staphylococcus aureus = assay: Microtiter dilution MIC, Staphylococcus aureus; type: cell-based; conditions: Mueller-Hinton broth, 37° C., 16-24 hours, read-out: Minimal Inhibitory Concentration
Protocol: as §1, §2, §3, §4, §5, §6

Streptococcus pyogenes = assay: Microtiter dilution MIC, Streptococcus pyogenes; type: cell-based; conditions: Mueller-Hinton broth, 37° C., 16-24 hours, read-out: Minimal Inhibitory Concentration
Protocol: as §1, §2, §3, §4, §5, §6

[1] = test system: Schizosaccharomyces pombe; assay: Microtiter dilution MIC, Schizosaccharomyces pombe; type: cell-based; conditions: yeasts or fungi, 28° C., 36-48 hours, read-out: Minimal Inhibitory Concentration
Protocol: as §1, §2, §3, §4, §5, §6

P388 leukemia cell line = assay: In vivo antineoplastic activity against transplanted P388 leukemia in mice; conditions: Days 1-9
Protocol: The in vivo antineoplastic activity of representative compounds of the present invention against the transplanted P388 leukemia cell line in mice was determined in accordance with the protocol given in Geran et al, cited above. The mice were infected intraperitoneally on Day 0 and then administered the indicated doses of the test compounds on Days 1-9.

Bacillus megaterium = assay: Microtiter dilution MIC, Bacillus megaterium; type: cell-based; conditions: Priestia megaterium; Mueller-Hinton broth, 37° C., 16-24 hours; read-out: Minimal Inhibitory Concentration
Protocol: as §1, §2, §3, §4, §5, §6

Streptococcus faecalis = assay: Microtiter dilution MIC, Streptococcus faecalis; type: cell-based; conditions: Enterococcus faecalis; Mueller-Hinton broth, 37° C., 16-24 hours; read-out: Minimal Inhibitory Concentration
Protocol: as §1, §2, §3, §4, §5, §6

Alcaligenes viscolactis = assay: Microtiter dilution MIC, Alcaligenes viscolactis; type: cell-based; conditions: Mueller-Hinton broth, 37° C., 16-24 hours, read-out: Minimal Inhibitory Concentration
Protocol: as §1, §2, §3, §4, §5, §6

Torulopsis albida = assay: Microtiter dilution MIC, Torulopsis albida; type: cell-based; conditions: Naganishia albida; yeasts or fungi, 28° C., 36-48 hours; read-out: Minimal Inhibitory Concentration
Protocol: as §1, §2, §3, §4, §5, §6

Streptococcus pneumoniae = assay: Microtiter dilution MIC, Streptococcus pneumoniae; type: cell-based; conditions: Mueller-Hinton broth, 37° C., 16-24 hours, read-out: Minimal Inhibitory Concentration
Protocol: as §1, §2, §3, §4, §5, §6

Pseudomonas aeruginosa = assay: Microtiter dilution MIC, Pseudomonas aeruginosa; type: cell-based; conditions: Mueller-Hinton broth, 37° C., 16-24 hours, read-out: Minimal Inhibitory Concentration
Protocol: as §1, §2, §3, §4, §5, §6

[2] = test system: Escherichia coli (PD-04863); assay: Microtiter dilution MIC, Escherichia coli (PD-04863); type: cell-based; conditions: Mueller-Hinton broth, 37° C., 16-24 hours, read-out: Minimal Inhibitory Concentration
Protocol: as §1, §2, §3, §4, §5, §6

Mucor paraciticus = assay: Microtiter dilution MIC, Mucor paraciticus; type: cell-based; conditions: yeasts or fungi, 28° C., 36-48 hours, read-out: Minimal Inhibitory Concentration
Protocol: as §1, §2, §3, §4, §5, §6

Micrococcus luteus = assay: Microtiter dilution MIC, Micrococcus luteus; type: cell-based; conditions: Mueller-Hinton broth, 37° C., 16-24 hours, read-out: Minimal Inhibitory Concentration
Protocol: as §1, §2, §3, §4, §5, §6

[3] = test system: L1210 murine leukemia cell line; assay: Cytotoxic activity against L1210 murine leukemia in vitro; type: cell-based; conditions: Mus musculus, 50% inhibition of growth, duplicate tests
Protocol: The antineoplastic activities of representative compounds of the present invention against the L1210 murine leukemia cell line in vitro were determined using the methods detailed by R. I. Geran et al, "Protocols for Screening Chemical Agents and Natural Products Against Animal Tumors and Other Biological Systems," 3rd Edition, Cancer Chemotherapy Reports, Part 3, Vol. 3, pages 1-87 (1972) which is incorporated herein by reference.
The IC50 values are the concentration of compound required to produce 50% inhibition of growth of the cell line.

Structure (SMILES)	MIC (Bacillus cereus)	MIC (Rhodotorula aurantiaca)	MIC (Salmonella typhimurium)	MIC (Branhamella catarrhalis)	MIC (Saccharomyces cerevisiae)	MIC (Rhizopus japonicus)	MIC (Staphylococcus aureus)	MIC (Streptococcus pyogenes)	MIC [1]	% T/C (P388 leukemia cell line; 25 mg/kg/injection)	MIC (Bacillus megaterium)	MIC (Streptococcus faecalis)	MIC (Alcaligenes viscolactis)	MIC (Torulopsis albida)	MIC (Streptococcus pneumoniae)	MIC (Pseudomonas aeruginosa)	MIC [2]	MIC (Mucor paraciticus)	MIC (Micrococcus luteus)	IC50 [3]	further results
COC(=O)c1ccc(O)c2nc3c(C=O)c(O)c(C)c(O)c3nc12 [Example 3, 6-formyl-4,7,9-trihydroxy-8-methyl-1-phenazinecarboxylic acid, methyl ester]	333 µg/mL (≈ 1010 µM)	> 1000 µg/mL	1000 µg/mL (≈ 3050 µM)	111 µg/mL (≈ 338 µM)	> 1000 µg/mL	> 1000 µg/mL	> 1000 µg/mL	111 µg/mL (≈ 338 µM)	> 1000 µg/mL	Toxic	1000 µg/mL (≈ 3050 µM)	1000 µg/mL (≈ 3050 µM)	333 µg/mL (≈ 1010 µM)	1000 µg/mL (≈ 3050 µM)	< 0.46 µg/mL	> 1000 µg/mL	> 1000 µg/mL	1000 µg/mL (≈ 3050 µM)	111 µg/mL (≈ 338 µM)	0.17 µg/mL (≈ 0.518 µM)	% T/C (P388 leukemia cell line; 3.12 mg/kg/injection): 119%; % T/C (P388 leukemia cell line; 6.25 mg/kg/injection): 130%; % T/C (P388 leukemia cell line; 12.5 mg/kg/injection): 149%
COC(=O)c1ccc(O)c2nc3c(C=NCCN(C)C)c(O)c(C)c(O)c3nc12 [Example 5, 6-[[[2-(dimethylamino)ethyl]imino]methyl]-4,7,9-trihydroxy-8-methyl-1-phenazinecarboxylic acid, methyl ester]	1.4 µg/mL (≈ 3.51 µM)	111 µg/mL (≈ 279 µM)	12.3 µg/mL (≈ 30.9 µM)	1.4 µg/mL (≈ 3.51 µM)	111 µg/mL (≈ 279 µM)	111 µg/mL (≈ 279 µM)	12.3 µg/mL (≈ 30.9 µM)	4.1 µg/mL (≈ 10.3 µM)	37 µg/mL (≈ 92.9 µM)	–	4.1 µg/mL (≈ 10.3 µM)	12.3 µg/mL (≈ 30.9 µM)	4.1 µg/mL (≈ 10.3 µM)	333 µg/mL (≈ 836 µM)	< 0.46 µg/mL	111 µg/mL (≈ 279 µM)	12.3 µg/mL (≈ 30.9 µM)	37 µg/mL (≈ 92.9 µM)	4.1 µg/mL (≈ 10.3 µM)	0.17 µg/mL (≈ 0.427 µM)	% T/C (P388 leukemia cell line; 37.5 mg/kg/injection): 104%; % T/C (P388 leukemia cell line; 75 mg/kg/injection): 113%; % T/C (P388 leukemia cell line; 150 mg/kg/injection): 137%
Cc1c(O)c(C=NCCN(C)C)c2nc3c(O)ccc(C(=O)NCCN(C)C)c3nc2c1O [Example 7, N-[2-(dimethylamino)ethyl]-6-[[[2-(dimethylamino)ethyl]imino]methyl]-4,7,9-trihydroxy-8-methyl-1-phenazinecarboxamide]	111 µg/mL (≈ 244 µM)	111 µg/mL (≈ 244 µM)	333 µg/mL (≈ 733 µM)	12.3 µg/mL (≈ 27.1 µM)	1000 µg/mL (≈ 2200 µM)	333 µg/mL (≈ 733 µM)	333 µg/mL (≈ 733 µM)	111 µg/mL (≈ 244 µM)	111 µg/mL (≈ 244 µM)	126%	333 µg/mL (≈ 733 µM)	1000 µg/mL (≈ 2200 µM)	4.1 µg/mL (≈ 9.02 µM)	1000 µg/mL (≈ 2200 µM)	37 µg/mL (≈ 81.4 µM)	< 1000 µg/mL	111 µg/mL (≈ 244 µM)	333 µg/mL (≈ 733 µM)	37 µg/mL (≈ 81.4 µM)	0.63 µg/mL (≈ 1.39 µM)	% T/C (P388 leukemia cell line; 50 mg/kg/injection): 140%; % T/C (P388 leukemia cell line; 100 mg/kg/injection): 152%; % T/C (P388 leukemia cell line; 200 mg/kg/injection): 166%
Cc1c(O)c(C=O)c2nc3c(O)ccc(C(=O)NCCN(C)C)c3nc2c1O [Example 8, N-[2-(dimethylamino)ethyl]-6-formyl-4,7,9-trihydroxy-8-methyl-1-phenazinecarboxamide]	37 µg/mL (≈ 96.3 µM)	> 1000 µg/mL	111 µg/mL (≈ 289 µM)	4.1 µg/mL (≈ 10.7 µM)	> 1000 µg/mL	> 1000 µg/mL	1000 µg/mL (≈ 2600 µM)	1000 µg/mL (≈ 2600 µM)	> 1000 µg/mL	205%	1000 µg/mL (≈ 2600 µM)	> 1000 µg/mL	4.1 µg/mL (≈ 10.7 µM)	> 1000 µg/mL	1000 µg/mL (≈ 2600 µM)	> 1000 µg/mL	1000 µg/mL (≈ 2600 µM)	> 1000 µg/mL	1000 µg/mL (≈ 2600 µM)	0.24 µg/mL (≈ 0.624 µM)	% T/C (P388 leukemia cell line; 3.12 mg/kg/injection): 113%; % T/C (P388 leukemia cell line; 6.25 mg/kg/injection): 129%; % T/C (P388 leukemia cell line; 12.5 mg/kg/injection): 146%
